The test deals with T1, Nuclear receptor ROR-gamma (Homo sapiens, UniProt P51449).
T1 sequence (P51449 whole entry): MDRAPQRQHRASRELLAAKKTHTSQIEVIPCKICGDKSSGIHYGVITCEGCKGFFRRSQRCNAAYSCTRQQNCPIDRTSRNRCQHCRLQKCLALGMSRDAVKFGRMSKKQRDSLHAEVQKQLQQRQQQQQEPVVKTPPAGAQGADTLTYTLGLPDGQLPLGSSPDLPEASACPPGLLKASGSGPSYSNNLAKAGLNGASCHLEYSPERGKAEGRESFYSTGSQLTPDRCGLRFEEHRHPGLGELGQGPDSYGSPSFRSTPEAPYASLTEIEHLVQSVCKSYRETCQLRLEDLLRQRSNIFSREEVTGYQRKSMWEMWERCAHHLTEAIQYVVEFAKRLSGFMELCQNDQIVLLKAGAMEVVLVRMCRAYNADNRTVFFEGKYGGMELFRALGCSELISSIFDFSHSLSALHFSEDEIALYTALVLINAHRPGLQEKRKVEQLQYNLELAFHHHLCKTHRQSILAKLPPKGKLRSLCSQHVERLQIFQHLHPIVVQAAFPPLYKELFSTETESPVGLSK
Put plainly: Binding Assay: Compounds of the present invention were tested for ability to bind to RORγ in a cell-free competition assay with commercially available radio-ligand (RL), 25-hydroxy [26,27-3H]— cholesterol (PerkinElmer, Cat. # NET674250UC), for a ligand binding site on a recombinant RORγ Ligand Binding Domain (LBD) protein expressed as a 6×His-Glutathione-S-Transferase (GST) fusion (“6×His” disclosed as SEQ ID NO: 2). The assay was performed in 96-well SPA plates (PerkinElmer, Cat. #1450-401) in 50 mM HEPES buffer, pH 7.4, containing 150 mM NaCl, 5 mM MgCl2, 10% (v/v) glycerol, 2 mM CHAPS, 0.5 mM β-octylglucopyranoside and 5 mM DTT. Tested compounds were dissolved in DMSO, and semi-log (3.162×) serial dilutions of the compounds were prepared in the same solvent. Two μL of the DMSO solutions were mixed with 28 μL of 8.6 nM 25-hydroxy [26,27-3H]— cholesterol and 50 μL of 24 nM RORγ LBD. The plate was shaken at 700 rpm for 20 min and incubated for 10 min at rt, after which 40 μL of poly-Lys YSi SPA beads (PerkinElmer, Cat. # RPNQ0010) were added to achieve 50 μg of the beads per well. The plate was incubated on an orbital shaker for 20 min and then for 10 min without agitation at rt. SPA signal for tritium beta radiation was registered on PerkinElmer Microbeta plate reader. […].

Drawing on ChEMBL document CHEMBL5726710, “Thiazolopyrrolidine inhibitors of ROR- γ” (2018), this text covers Ki for one compound.

pKi: −log10 of the molar value.

Turning to `CC(C)[C@H]1c2nc(NS(=O)(=O)c3cccc(C(F)(F)F)c3)sc2CN1Cc1ccc(Cl)cc1`, the pKi was under 6.00.

What is called pKi is the negative decadic logarithm of the Ki, by convention in mol/L.
